Read-outs that look alike come from different tables or passages of the source.
Tests used:
THP1 macrophages [1] = tested on: THP1 macrophages
Experimental: The number of cells was determined, e.g., by counting the cells at the beginning of the experiment and by using the alamar blue method after the seeding. On the day the cells were seeded at the appropriate number, phorbo112-myristate 13-acetate (PMA) was added to the media at a final concentration of about 100 ng/ml to differentiate the THP-1 monocytes into THP-1 macrophages.

THP1 macrophages [2] = experiment: RT-PCR gene expression (TNF-α, TGF-β, IL-10) of THP1 macrophages on SP1 particles
primary dendritic cells [3] = experiment: TNF-α release (ELISA) from primary dendritic cells on SP0.5 particles; assay type: cell-based, human; conditions: various concentrations, both time points
primary macrophages [4] = experiment: RT-PCR gene expression (TNF-α, IL-1RA, IL-10) of primary macrophages on SP0.5 particles; assay type: cell-based, human; conditions: 1 day
primary dendritic cells [5] = experiment: RT-PCR gene expression (IL-1β, IL-1RA, IL-8) of primary dendritic cells on SP0.5 particles; assay type: cell-based, human
primary macrophages [6] = experiment: TNF-α release (ELISA) from primary macrophages on SP0.5 particles; assay type: cell-based, human; conditions: dexamethasone ~25 to ~1.5625 μg/ml both time points; simvastatin about 250 to about 31.25 μg/ml at 1 day; nicotine either time point
THP1 macrophages [7] = experiment: TNF-α release (ELISA) from THP1 macrophages seeded on SP1 particles, LPS plus drug; assay type: cell-based, human
Experimental: To assess inflammatory response, a large screen of cytokines and chemokines expressed and produced by THP1 differentiated cells and primary Mφs and DCs were analyzed. Their production and release into the media environment were evaluated using an ELISA sandwich technique. […] TNF-α cytokine release was selected in the experiments described herein because it is the common proinflammatory cytokine produced by Mφs as well as DCs. However, other inflammation-associated cytokines can also be measured.

THP-1 monocytes = experiment: M1/M2 macrophage marker expression in THP-1 monocytes cultured on silk films functionalized with macrophage-skewing agent; assay type: cell-based, human
[8] = Release of INF-γ from INF-γ embedded silk films (ELISA); assay type: physicochemical
Experimental: An ELISA was run to show the release rate of INF-γ from the silk films. The films were made from a silk fibroin solution of about 10 μg/m and 0.2 ml used per film (for a total loading of about 2 μg INF-γ). Within one hour a large amount of INF-γ is released but as a percentage of the total loading it is small and by 4 days more INF-γ is released showing that there is a continued or constant release of INF-γ. While the levels of INF-γ release are low, they are physiologically relevant.
FIG. 23 is a line graph showing the release rate of INF-γ from the silk films. The silk films were made from a silk solution at a concentration of about 10 μg/m and about 0.2 ml of the silk solution was used per film (with a loading of about 2 μg INF-γ). As shown in the table of FIG. 23, within one hour an amount of about […] INF-γ was released, which is about 0.02% of the total loading. […] While the levels of INF-γ release appeared to be low, the level is physiologically relevant.

[9] = about 10 μg/ml INF-γ in silk films

CN1CCCC1c1cccnc1 (centres unmarked) [nicotine]
cytotoxicity (in words) (THP1 macrophages [1]; dexamethasone ~100 and ~50 μg/ml, simvastatin 250 μg/ml, nicotine 3 mg/ml, both time points): cytotoxic | cytotoxicity (in words) (THP1 macrophages [1]; nicotine ~1.5 mg/ml, 3 days): cytotoxic | effect on cell number versus positive and negative controls (THP1 macrophages [1]; non-cytotoxic nicotine concentrations): proliferative effect | IL-10 gene expression (THP1 macrophages [2]; 1 day, dexamethasone vs media control, simvastatin vs positive control, nicotine vs controls): unregulated | TGF-β gene expression (THP1 macrophages [2]; 3 days, dexamethasone all concentrations except ~25 μg/ml, nicotine compared to same concentrations at 1 day): downregulated | TNF-α gene expression (THP1 macrophages [2]; 3 days, dexamethasone vs LPS control, nicotine vs negative control): higher than the negative control | IL-10 gene expression (THP1 macrophages [2]; 3 days, nicotine compared to same concentrations at 1 day): downregulated | TNF-α release compared to LPS control (primary dendritic cells [3]): the same as observed with macrophages | TNF-α gene expression (primary macrophages [4]; dexamethasone, simvastatin 125 to 31.25 μg/ml, nicotine 187.5 and 93.75 μg/ml): downregulated | IL-10 gene expression (primary macrophages [4]; dexamethasone, simvastatin, nicotine about 750 to about 275 μg/ml): high | IL-1RA gene expression (primary macrophages [4]; simvastatin, nicotine about 750 to about 275 μg/ml): high | gene expression profile (anti-inflammatory or not) (primary dendritic cells [5]; 1 day, dexamethasone various concentrations, simvastatin ~62.5 μg/ml, nicotine about 46.87 to about 187.5 μg/ml): no anti-inflammatory profile | gene expression profile (anti-inflammatory or not) (primary dendritic cells [5]; 5 days): no anti-inflammatory profile | TNF-α release compared to LPS control (primary macrophages [6]): no significant decrease | TNF-α release compared to positive control (LPS), high concentrations (THP1 macrophages [7]; dexamethasone ~100 and ~50 μg/ml, simvastatin higher concentration, nicotine above 750 μg/ml, both time points): more TNF-α was released than the positive control

CCC(C)(C)C(=O)O[C@H]1C[C@@H](C)C=C2C=C[C@H](C)[C@H](CC[C@@H]3C[C@@H](O)CC(=O)O3)[C@H]21 [simvastatin]
TNF-α release (THP1 macrophages [7]; simvastatin ~31.5 μg/ml and less): about 0.07 pg/ml

C[C@@H]1C[C@H]2[C@@H]3CCC4=CC(=O)C=C[C@]4(C)[C@@]3(F)[C@@H](O)C[C@]2(C)[C@@]1(O)C(=O)CO [dexamethasone]
IL-10 fold change in expression (relative to positive control) (THP1 macrophages [2]; 1 day, dexamethasone about 12.5 μg/ml): above 1 fold

INF-γ: interferon-gamma loaded or embedded in silk films
CCL-18 (M2 macrophage marker) (THP-1 monocytes; [9]): upregulated | CD206 (M2 macrophage marker) relative to control (THP-1 monocytes; [9]): strongly downregulated | markers of M1 macrophage (CCL3 and CCR7) (THP-1 monocytes; about 10 μg/ml INF-γ loaded or embedded in silk films): up-regulated

B1: INF-γ: interferon-gamma loaded or embedded in silk films (protein, UniProt P01579 24-161, looked up)
Interferon gamma: QDPYVKEAENLKKYFNAGHSDVADNGTLFLGILKNWKEESDRKIMQSQIVSFYFKLFKNFKDDQSIQKSVETIKEDMNVKFFNSNKKKRDDFEKLTNYSVTDLNVQRKAIHELIQVMAELSPAAKTGKRKRSQMLFRG
continued INF-γ release ([8]; by day 4): More INF-γ was released | INF-γ released as share of the total loading ([8]; within one hour): about 0.02% | amount of INF-γ released from silk film ([8]; within one hour, loading about 2 μg INF-γ per film): about 400 μg/ml

From patent US20150010630A1, “FUNCTIONALIZATION OF BIOMATERIALS TO CONTROL REGENERATION AND INFLAMMATION RESPONSES” (TRUSTEES OF TUFTS COLLEGE, priority 2011, published 2015)
